According to PubChem BioAssay (NCI):
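96-well plates; 48 h exposure; 5 concentrations. Endpoints by linear interpolation between flanking doses. Not reached: highest tested concentration assigned. Definition used: TGI = concentration required for complete inhibition of growth.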 Where a SMILES comes first, the peptide text is derived from it. [ ]: non-standard residue; d: D form.

What was measured:
Experiment in all cases: NCI-60 cell line screen, 48 h
A549 NSCLC = tested on: A549 NSCLC
EKVX NSCLC = tested on: EKVX NSCLC
HCC-2998 colon = tested on: HCC-2998 colon
HL-60(TB) leukemia = tested on: HL-60(TB) leukemia
HOP-92 NSCLC = tested on: HOP-92 NSCLC
IGROV1 ovarian = tested on: IGROV1 ovarian
NCI-H23 lung = tested on: NCI-H23 lung
OVCAR-3 ovarian = tested on: OVCAR-3 ovarian
OVCAR-4 ovarian = tested on: OVCAR-4 ovarian
RXF 393 renal = tested on: RXF 393 renal
SK-MEL-2 melanoma = tested on: SK-MEL-2 melanoma
SK-MEL-28 melanoma = tested on: SK-MEL-28 melanoma
SK-MEL-5 melanoma = tested on: SK-MEL-5 melanoma
SN12C renal = tested on: SN12C renal
UACC-62 melanoma = tested on: UACC-62 melanoma
MALME-3M melanoma = tested on: MALME-3M melanoma
MOLT-4 leukemia = tested on: MOLT-4 leukemia
NCI-H226 lung = tested on: NCI-H226 lung
SF-295 CNS = tested on: SF-295 CNS
SK-OV-3 ovarian = tested on: SK-OV-3 ovarian

Compound | TGI (A549 NSCLC) | TGI (EKVX NSCLC) | TGI (HCC-2998 colon) | TGI (HL-60(TB) leukemia) | TGI (HOP-92 NSCLC) | TGI (IGROV1 ovarian) | TGI (NCI-H23 lung) | TGI (OVCAR-3 ovarian) | TGI (OVCAR-4 ovarian) | TGI (RXF 393 renal) | TGI (SK-MEL-2 melanoma) | TGI (SK-MEL-28 melanoma) | TGI (SK-MEL-5 melanoma) | TGI (SN12C renal) | TGI (UACC-62 melanoma) | TGI (MALME-3M melanoma) | TGI (MOLT-4 leukemia) | TGI (NCI-H226 lung) | TGI (SF-295 CNS) | TGI (SK-OV-3 ovarian)
CCn1cnnc1-c1nsc2ccccc12 | > 100 µM | > 100 µM | > 100 µM | > 100 µM | > 100 µM | > 100 µM | > 100 µM | > 100 µM | > 100 µM | > 100 µM | > 100 µM | > 100 µM | > 100 µM | > 100 µM | > 100 µM |  |  |  |  | 
CC1=CC2c3cccc4[nH]cc(c34)CC2N(C)C1 (stereo not given) | > 100 µM | > 100 µM | 86 µM | > 100 µM | > 80.7 µM | > 100 µM | > 100 µM | > 100 µM | > 100 µM | > 100 µM | > 100 µM | > 100 µM | > 100 µM | > 100 µM | > 100 µM | > 100 µM | > 100 µM | > 100 µM | > 100 µM | > 100 µM
CC(C)NC(=O)OCc1c2c(n(C)c1COC(=O)NC(C)C)-c1ccccc1CC2 | 89.9 µM | 33.6 µM | 26.3 µM | > 32 µM | 22.2 µM | 29.2 µM | 19.7 µM | 27.3 µM | 34.5 µM | 27.3 µM | 29.5 µM | 26.2 µM | 29.1 µM | 27.4 µM | 25.5 µM | 19.2 µM | 8.95 µM | 31.4 µM | 30.2 µM | 42.6 µM
CC(C)C[C@H](NC(=O)[C@H](CC(C)C)NC(=O)[C@@H](Cc1c[nH]c2ccccc12)NC(=O)[C@H](Cc1ccccc1)NC(=O)[C@@H](Cc1c[nH]c2ccccc12)NC(=O)[C@H](CCC(N)=O)NC(=O)[C@H](CCC(N)=O)NC(=O)[C@H]1CCCN1C(=O)[C@@H](N)CCCCN)C(N)=O (H-K[dP]QQ[dW]F[dW]LL-NH2) | > 100 µM | > 100 µM | > 100 µM | > 100 µM | > 100 µM | > 100 µM | > 100 µM | > 100 µM | > 100 µM | > 100 µM | > 100 µM | > 100 µM | > 100 µM | > 100 µM | > 100 µM | > 100 µM | > 100 µM | > 100 µM | > 100 µM | > 100 µM
Cc1ccc2c(=O)c3ccccc3sc2c1 | > 100 µM | > 100 µM | > 100 µM | > 100 µM |  | > 100 µM | > 100 µM | > 100 µM | > 100 µM | > 100 µM |  | > 100 µM | > 100 µM | > 100 µM | > 100 µM | > 100 µM | > 100 µM | > 100 µM |  | > 100 µM
CC(Cl)CC(=O)OCC1CCCN2CCCCC12 (stereo not given) | > 100 µM | > 100 µM | > 100 µM | > 100 µM | > 100 µM |  | > 100 µM | > 100 µM | > 100 µM | > 100 µM | > 100 µM | > 100 µM | > 100 µM | > 100 µM | > 100 µM | > 100 µM | > 100 µM | > 100 µM | > 100 µM | > 100 µM
O=C(O)C1CCCCN1c1ccccc1[N+](=O)[O-] (stereo not given) | > 100 µM | > 100 µM | > 100 µM | > 100 µM | > 100 µM | > 100 µM | > 100 µM | > 100 µM | > 100 µM | > 100 µM | > 100 µM |  | > 100 µM | > 100 µM | > 100 µM | > 100 µM | > 100 µM | > 100 µM | > 100 µM | > 100 µM
O=[N+]([O-])c1ccc(NNN=Nc2ccc(-c3nc4ccccc4s3)cc2)c([N+](=O)[O-])c1 | > 100 µM | 44.4 µM | 36.6 µM | 69.9 µM | 52.7 µM | 49.5 µM | 59.3 µM | 46.7 µM | > 100 µM | 50.5 µM | 41.8 µM | > 100 µM | 29.3 µM | 50.8 µM | 27.7 µM | 77.6 µM | 53.5 µM | 69.4 µM | 42.6 µM | > 100 µM
CC1=C(C)SC(=C2Sc3nc(O)[nH]c(=O)c3S2)S1 | > 100 µM | > 100 µM | > 100 µM |  | > 100 µM | > 100 µM | > 100 µM | > 100 µM | > 100 µM | > 100 µM |  | > 100 µM | > 100 µM | > 100 µM | 59.4 µM | 50.8 µM | > 100 µM | > 100 µM | > 100 µM | > 100 µM
CC(=O)Nc1cccc(N=NN(C)C)c1 | > 100 µM | > 100 µM | > 100 µM | > 100 µM | > 100 µM | > 100 µM | > 100 µM | > 100 µM | > 100 µM | > 100 µM | > 100 µM | > 100 µM | > 100 µM | > 100 µM | > 100 µM | > 100 µM | > 100 µM | > 100 µM | > 100 µM | > 100 µM
O=c1oc2cc(O)ccc2c(O)c1Cc1c(O)c2ccc(O)cc2oc1=O | > 100 µM | > 100 µM | > 100 µM | > 100 µM | > 100 µM | > 100 µM | > 100 µM | > 100 µM | > 100 µM | > 100 µM | > 100 µM | > 100 µM | > 100 µM | > 100 µM | > 100 µM | > 100 µM | > 100 µM | > 100 µM | > 100 µM | > 100 µM
O=c1cc(-c2ccccc2)[nH]c2nccn12 | > 10 µM | > 10 µM | > 10 µM | > 10 µM |  | > 10 µM | > 10 µM | > 10 µM | > 10 µM | > 10 µM | > 10 µM | > 10 µM | > 10 µM | > 10 µM | > 10 µM | > 10 µM | > 10 µM | > 10 µM | > 10 µM | > 10 µM
O=C(N/N=C/c1cc(Br)cc(Br)c1[O-])c1ccccc1O.O=C(N/N=C/c1cc(Br)cc(Br)c1[O-])c1ccccc1O.[Co+2] | 12.6 µM | 11.3 µM | 10.5 µM | 0.906 µM | 6.13 µM | 8.44 µM | 7.57 µM | 3.6 µM | 3.15 µM | 10.5 µM | 5.4 µM | 14.5 µM | 2.96 µM |  | 1.78 µM | 18.5 µM | 14.3 µM | 7.39 µM | 12.6 µM | 5.57 µM
C[C@@H]1CC[C@@]2(OC1)O[C@H]1C[C@H]3[C@@H]4CC[C@H]5C[C@@H](OC6OC(CO)C(OC7OC(CO)C(O)C(OC8OCC(O)C(O)C8O)C7OC7OC(CO)C(O)C(O)C7O)C(O)C6O)[C@H](O)C[C@]5(C)[C@H]4CC[C@]3(C)[C@H]1[C@@H]2C (stereo not given in full) | 10.9 µM | 21 µM | 24.7 µM | 9.54 µM | 66.5 µM | 8.31 µM | 7.39 µM | 9.56 µM | 4.62 µM | 27.1 µM | 24.8 µM | 31 µM | 45.8 µM |  | 47.3 µM | 30.8 µM | 31.1 µM | 23.9 µM | 13.4 µM | 29.8 µM
